Test results as given in US20210322333A1, “Lignin-PLGA Biopolymers and Nanoparticles, and their Synthesis and Use” (Board of Supervisors of Louisiana State University and …, priority 2018, published 2021).
Marks after values point to notes of the source that are not given here.

Legend:
[1] = tested on: MDA-MB-231 breast cancer cells; experiment: Cell survival assay (crystal violet, 5 days); type: cell-based
Protocol: Breast cancer cell line MDA-MB-231 was generously donated by the Burrow Lab at Tulane University School of Medicine. Cells were maintained in 5% CO2 at 37° C. and cultured in Dulbecco's modified Eagle's medium (DMEM) supplemented with 10% Hyclone Cosmic Calf Serum (HyClone Laboratories, Utah), 50 ng/mL insulin (Sigma-Aldrich, St. Louis, Mo., USA), and 1% MEMAA, NEAA, sodium pyruvate, and antibiotic-antimycotic (Gibco, Dublin, Ireland).
MDA-MB-231 breast cancer cells were seeded at a density of 5000 cells per well in cell culture medium on 96-well Corning Costar tissue culture plastic plates (Corning Life Sciences, Corning, N.Y., USA). After 24 hours in culture, cells were treated with vehicle control (DMSO), PLGA NPs (negative control), AL-PLGA NPs (negative control), free GDC-0623 (positive control), PLGA-GDC NPs, or AL-PLGA-GDC NPs. […] Following treatment, cells were cultured for 5 days and then stained with crystal violet. Crystal violet was eluted with 33% acetic acid, and absorbance at 570 nm was measured with a BioTek Cytation 3 plate reader (BioTek Instruments Inc, Winooski, Vt., USA). The experiment was carried out with both internal replicates (n=3) and biological replicates (n=3).

[2] = cited from earlier work

O=C(NOCCO)c1ccc2cncn2c1Nc1ccc(I)cc1F [GDC-0623]
Mean Relative Cell Number (%) ([1]; 1 nM, relative to DMSO, n = 3): 96.1%
Mean Relative Cell Number (%) ([1]; 10 nM GDC-0623 free or NP-entrapped, relative to DMSO (Table 6)): 87.8* %
Mean Relative Cell Number (%) ([1]; 10 nM, relative to DMSO, n = 3): 83.9%
Mean Relative Cell Number (%) ([1]; 100 nM GDC-0623, normalized versus free drug (Table 7, first group)): 100.0%
Mean Relative Cell Number (%) ([1]; 100 nM GDC-0623 free or NP-entrapped, relative to DMSO (Table 6)): 51.4** %
reduction in cell numbers ([1]; 100 nM, compared to DMSO (vehicle)): 50%
Mean Relative Cell Number (%) ([1]; 100 nM, relative to DMSO, n = 3): 46.8* %
Mean Relative Cell Number (%) ([1]; 1 μM, relative to DMSO, n = 3): 31.3** %
Mean Relative Cell Number (%) ([1]; 10 μM, relative to DMSO, n = 3): 30.9** %
Mean Relative Cell Number (%) ([1]; printed 100 nM GDC-0623, normalized versus free drug (Table 7, second group r12-r14)): 100.0%
pharmacokinetic characteristics ([2]; Phase I trials): dose-proportional and time-dependent
tolerability ([2]; Phase I trials): well-tolerated
accumulation at steady-state ([2]; daily oral dosing): no significant accumulation
